Assay results published in patent US7919673B2, “Transgenic pig with altered incretin function” (Ludwig-Maximilians-Universitat, priority 2008, dated 2011).
“Also recorded” adds a separate entry of the source.

Columns and labels:
[1] = system: GIPR^dn transgenic (tg) and control (wt) pigs; assay: GIP/Exendin-4 stimulation test in 10- to 13-week-old pigs; type: in vivo, pig; settings: for insulinotropic effect in GIPR^dn transgenic pigs compared to controls: 10- to 13-week-old (eleven-week-old) pigs, intravenously administrated with glucose
Source text: (§1) For the oral glucose tolerance test (OGTT), one central venous catheter (Cavafix® Certo®, B. Braun, Melsungen, Germany) was inserted non-surgically into the external jugular vein under general anesthesia according to the manufacturer's instructions. For accomplishment of the GIP/Exendin-4 stimulation test as well as the intravenous glucose tolerance test, two central venous catheters (Cavafix® Certo®, B. Braun) were surgically inserted into the external jugular vein under general anesthesia using a modified method of Moritz et al. (24). At the start of the study period, all animals had fully recovered from the surgical procedure as evaluated by normal behavior and food intake.
(§2) The OGTT was performed in 11-week old and 5-month-old non-restrained, freely moving animals. After an 18-h overnight fast, animals were fed 2 g/kg BW glucose (25) mixed with 100 g of commercial pig fodder (Deuka primo care in 11-week-old pigs; Deuka porfina U in 5-month-old pigs; Deuka, Düsseldorf, Germany). The meal was eaten from a bowl under supervision. Blood samples were obtained from the jugular vein catheter at −10, 0, 15, 30, 45, 60, 90 and 120 minutes relative to the glucose load in 11-week-old pigs and at −15, −5, 0, 15, 30, 45, 60, 90, 120, 150 and 180 minutes relative to the glucose load in 5-month-old pigs. Serum glucose levels were determined using an AU 400 autoanalyzer (Olympus, Hamburg, Germany) while serum insulin levels were measured in duplicate using a porcine insulin radioimmunoassay (RIA) kit (Millipore, Billerica, USA) according to the manufacturer's instructions.
(§3) The GIP/Exendin-4 stimulation test was performed in 10- to 13-week old and 7-months-old (28-36 weeks) non-restrained freely moving animals. In 7-months-old animals, 0.5 g glucose/kg BW were administered intravenously as a bolus of concentrated 50% glucose solution following an 18-hour fasting period (26). After three minutes 20 pmol/kg BW of synthetic porcine GIP (Bachem, Weil am Rhein, Germany) or 10 pmol/kg BW of synthetic Exendin-4 (Bachem) were administered intravenously. Blood samples were collected −15, 0, 1, 3, 6, 9, 11, 13, 18, 23, 28, 33, 48 and 60 minutes relative to the glucose load. In 10- to 13-week-old animals, 0.5 g glucose/kg BW were administered intravenously as a bolus of concentrated 50% glucose solution following an 18-hour fasting period (26). Right after glucose administration 80 pmol/kg BW of synthetic porcine GIP (Bachem, Weil am Rhein, Germany) or 40 pmol/kg BW of synthetic Exendin-4 (Bachem) were administered intravenously. […]
(§4) All data are presented as means±SEM. […] Data from the GIP/Exendin-4 stimulation tests in 10- to 13-week-old animals as well as from proliferation index (Ki67 immunohistochemistry) were analyzed using ANOVA (analysis of variance) (SAS). […]

[2] = system: GIPR^dn transgenic (tg) and control (wt) pigs; assay: GIP/Exendin-4 stimulation test in 7-months-old (28-36 weeks) pigs; type: in vivo, pig; settings: 28- to 36-week-old; for insulin secretion compared to glucose administration alone: 10 pmol/kg BW Exendin-4 i.v. 3 min after i.v. glucose, p<0.05
Source text: as §1, §2, §3, §4

Substance | insulinotropic effect in GIPR^dn transgenic pigs compared to controls [1] | serum insulin levels in control pigs compared to GIPR^dn transgenic pigs ([1]; 10- to 13-week-old pigs, 80 pmol/kg BW GIP i.v. together with 0.5 g/kg i.v. glucose) | increase in glucose-induced insulin concentration (Δ insulin) ([2]; GIPR^dn transgenic pigs, 20 pmol/kg BW GIP i.v. 3 min after 0.5 g/kg i.v. glucose, glucose alone 7 μU/ml) [μU/ml] | increase in i.v. glucose-induced serum insulin concentration (Δ insulin) ([2]; control (wt) pigs, 20 pmol/kg BW GIP i.v. 3 min after 0.5 g/kg i.v. glucose, glucose alone 27 μU/ml) [μU/ml] | insulin secretion in GIPR^dn transgenic pigs compared to controls ([1]; 10- to 13-week-old pigs, 40 pmol/kg BW Exendin-4 i.v. together with 0.5 g/kg i.v. glucose, p<0.01) | insulin secretion compared to glucose administration alone ([2]; GIPR^dn transgenic pigs) | insulin secretion compared to glucose administration alone ([2]; control pigs)
glucose-dependent insulinotropic polypeptide [GIP] | blunted; also recorded: impaired | significantly (p<0.01) higher insulin levels | 11 | 58 |  |  | 
Exendin-4 | enhanced |  |  |  | increased insulin secretion; also recorded: significantly higher increase | significant stimulation; also recorded: significant increase | significant increase
